# Data reported in US20070015232A1, “Mitotic index assay” (DiscoveRx, Inc., priority 2005, published 2007).
# Experiments:
# [1] = system: CHO-K1+cyto-EA cells transfected with cJUN-PL; experiment: EFC mitotic index assay, CHO-K1+cyto-EA cells transiently transfected with cJUN-PL; format: cell-based; details: for Avg luminescence readout / R1 luminescence readout / R3 luminescence readout / Ratio (Avg vs 0 conc): overnight; for increase in EFC activity (in words): overnight incubation
# Protocol: (§1) The initial test of the cell cycle arresting compounds was performed on a double stable cell line having both of the constructs expressing the EA-NLS/NRS and GR-PL. (PL is β-galactosidase enzyme donor fragment and EA is the enzyme acceptor fragment available from DiscoveRx, Fremont, CA.). The parental line, C2C12 is derived from mouse muscle cells. In the experiments in which EA-NLS/NRS and GR-PL are expressed in the C2C12 parental cell line, the constructs were generated by subcloning the human GR sequence into a MFG-based retroviral vector that had been molecularly altered in a lab at Stanford. An MFG vector is described in U.S. Pat. No. 6,544,771. The EA-NLS/NRS fragment was subcloned into a wzl-based retroviral vector again molecularly altered in a lab at Stanford. In the experiments performed using a CHO-K1 parental cell line background the EA-NLS/NRS was subcloned into the Kpn I and Xba I sites of pcDNA3.1 Hygro vector from Invitrogen (catalog #V870-20). The plasmid was introduced into the cells via FuGene6 (Roche) transfection reagent. Cells were selected in the presence of 250 μg/mL of Hygromycin and single cell clones isolated that expressed the EA-NLS/NRS. The human GR gene was cloned by PCR and subcloned into the Xho I and Bam HI sites of the DiscoveRx vector-pCMV-myc-PL (C3). The plasmid was introduced into the selected EA-NLS/NRS expressing clone isolated above by FuGene 6 transfection. Another round of screening in the presence of 300-500 μg/mL of G418 was used to select GR-PL transfected clones. Clonal selection was performed to finally identify the clone that was used in these studies. In the studies using the CHO-K1+cyto-EA and cJUN-PL, the same Invitrogen pcDNA3.1 Hygro vector was used to express EA. In this case, the EA fragment was subcloned into the Kpn I/Not I sites of pcDNA3.1 Hygro. The plasmid DNA was introduced as described above using FuGene6 reagent. Cells were selected in the presence of 250 μg/mL of hygromycin and clonal selection was performed. The c-Jun gene was generated by PCR using an existing template copy of the gene and then subcloned into the Xho I/Bam HI sites of pCMV-PL-myc (C3).
# To further test the concept of sequestering of one β-galactosidase enzyme fragment in the nucleus (in this case PL) while localizing the other component in the cytoplasm (in this case EA) the following experiment was carried out. […] The cyto-EA cells were transiently transfected with cJUN-PL plasmid DNA. Two days after the transfection, the cells were re-plated into a 96 well Corning white clear bottom multiwell plate at 20,000 cells/well. The cells were allowed to adhere overnight and the next day were treated with titrating concentrations of the six different cell cycle blocking compounds. The incubation was carried out overnight. The next day the media was removed from the cells and 100 μL of Tropix/ABI Gal screen cell lysis/substrate reagent was added to the cells.
# [2] = system: CHO-K1+EA-NLS/NRS+GR-PL cells; experiment: EFC mitotic index assay, CHO-K1+EA-NLS/NRS+GR-PL cells, antibiotic selected pool (DX M19/GR pool); format: cell-based; details: for Avg luminescence readout / R1 luminescence readout / R3 luminescence readout / Ratio (Avg vs 0 conc): 24 hours, 30 min read; for increase in EFC activity (in words): overnight treatment
# Protocol: (§2) In all experiments described, 20,000 cells/well were plated in a 96 well Corning clear bottom white plate in a total volume of 100 μL. The cells were treated for 24 hours with 5 μL of either the appropriate vehicle control or varying concentrations of the six compounds listed above. The next day, 100 μL of Tropix/ABI Gal screen cell lysis buffer/substrate mixture (24:1 ratio of component) was added to the cells/media and the plate was read on the Victor II luminescent plate reader at 30, 60 and 120 minutes after the lysis/substrate addition.
# as §1
# In the next experiment, an antibiotic selected pool population of CHO-K1 cells that express EA-NLS/NRS and GR-PL were tested with the same six set of cell cycle blocking compounds. […] FIGS. 2a and 2b show the immunofluorescence localization of EA and GR-PL in that the blue DAPI nuclear staining can be seen to be concentrated in the nucleus, while the green fluorescein stain on the antibody (from Abcam PLC) to the glucocorticoid receptor is seen in the cytoplasm. […] Again, six tables are presented one for each of the six drugs tested.
# This only occurs with compounds that block the cells in mitosis, allowing EA and ProLabel to complement.
# [3] = system: C2C12+EA-NLS/NRS+GR-PL cells; experiment: EFC mitotic index assay, C2C12+EA-NLS/NRS+GR-PL cells (Stanford GR cells); format: cell-based, mouse; details: 24 hours, 30 min read
# Protocol: as §2, §1
compound,measurement,setting,value
"C[C@@]1(CO)[C@H](O)CC[C@@]2(C)[C@H]1CC[C@H]1C[C@@H]3C[C@@]12CC[C@]3(O)CO [Aphidicolin, aphidicolin]",Avg luminescence readout,[1]; 1.5 μg/mL,7545
same,R1 luminescence readout,[1]; 1.5 μg/mL,7218
same,R3 luminescence readout,[1]; 1.5 μg/mL,7576
same,Ratio (Avg vs 0 conc),[1]; 1.5 μg/mL,0.9
same,Avg luminescence readout,[1]; 4.4 μg/mL,9193
same,R1 luminescence readout,[1]; 4.4 μg/mL,9492
same,R3 luminescence readout,[1]; 4.4 μg/mL,9245
same,Ratio (Avg vs 0 conc),[1]; 4.4 μg/mL,1.1
same,Avg luminescence readout,[1]; 13.3 μg/mL,7027
same,R1 luminescence readout,[1]; 13.3 μg/mL,6677
same,R3 luminescence readout,[1]; 13.3 μg/mL,7784
same,Ratio (Avg vs 0 conc),[1]; 13.3 μg/mL,0.8
same,Avg luminescence readout,[1]; 40.0 μg/mL,9131
same,R1 luminescence readout,[1]; 40.0 μg/mL,8645
same,R3 luminescence readout,[1]; 40.0 μg/mL,9818
same,Ratio (Avg vs 0 conc),[1]; 40.0 μg/mL,1.0
same,increase in EFC activity (in words),[1],negligible increase in EFC activity
same,Avg luminescence readout,[2]; 0.3 μM,5508
same,R1 luminescence readout,[2]; 0.3 μM,5478
same,R3 luminescence readout,[2]; 0.3 μM,5469
same,Ratio (Avg vs 0 conc),[2]; 0.3 μM,1
same,Avg luminescence readout,[2]; 1 μM,5604
same,R1 luminescence readout,[2]; 1 μM,5656
same,R3 luminescence readout,[2]; 1 μM,5491
same,Ratio (Avg vs 0 conc),[2]; 1 μM,1
same,Avg luminescence readout,[2]; 3.3 μM,4561
same,R1 luminescence readout,[2]; 3.3 μM,4392
same,R3 luminescence readout,[2]; 3.3 μM,4749
same,Ratio (Avg vs 0 conc),[2]; 3.3 μM,0
same,Avg luminescence readout,[2]; 10.0 μM,6941
same,R1 luminescence readout,[2]; 10.0 μM,7213
same,R3 luminescence readout,[2]; 10.0 μM,6651
same,Ratio (Avg vs 0 conc),[2]; 10.0 μM,1
same,increase in EFC activity (in words),[2],did not cause an increase in EFC activity
same,Avg luminescence readout,[3]; 0.3 μM,3444
same,R1 luminescence readout,[3]; 0.3 μM,3081
same,R3 luminescence readout,[3]; 0.3 μM,3500
same,Ratio (Avg vs 0 conc),[3]; 0.3 μM,1
same,Avg luminescence readout,[3]; 1 μM,3307
same,R1 luminescence readout,[3]; 1 μM,3250
same,R3 luminescence readout,[3]; 1 μM,3388
same,Ratio (Avg vs 0 conc),[3]; 1 μM,1
same,Avg luminescence readout,[3]; 3.3 μM,3132
same,R1 luminescence readout,[3]; 3.3 μM,3171
same,R3 luminescence readout,[3]; 3.3 μM,3105
same,Ratio (Avg vs 0 conc),[3]; 3.3 μM,1
same,Avg luminescence readout,[3]; 10.0 μM,3413
same,R1 luminescence readout,[3]; 10.0 μM,2827
same,R3 luminescence readout,[3]; 10.0 μM,3765
same,Ratio (Avg vs 0 conc),[3]; 10.0 μM,1
NC(=O)NO [Hydroxyurea],Avg luminescence readout,[1]; 3.0 μg/mL,7420
same,R1 luminescence readout,[1]; 3.0 μg/mL,7319
same,R3 luminescence readout,[1]; 3.0 μg/mL,6690
same,Ratio (Avg vs 0 conc),[1]; 3.0 μg/mL,1.2
same,Avg luminescence readout,[1]; 10.0 μg/mL,7634
same,R1 luminescence readout,[1]; 10.0 μg/mL,8237
same,R3 luminescence readout,[1]; 10.0 μg/mL,6699
same,Ratio (Avg vs 0 conc),[1]; 10.0 μg/mL,1.3
same,Avg luminescence readout,[1]; 30.0 μg/mL,6984
same,R1 luminescence readout,[1]; 30.0 μg/mL,7217
same,R3 luminescence readout,[1]; 30.0 μg/mL,6624
same,Ratio (Avg vs 0 conc),[1]; 30.0 μg/mL,1.2
same,Avg luminescence readout,[1]; 100.0 μg/mL,7742
same,R1 luminescence readout,[1]; 100.0 μg/mL,7955
same,R3 luminescence readout,[1]; 100.0 μg/mL,7483
same,Ratio (Avg vs 0 conc),[1]; 100.0 μg/mL,1.3
same,increase in EFC activity (in words),[1],negligible increase in EFC activity
same,Avg luminescence readout,[2]; 1.0 μg/mL,4562
same,R1 luminescence readout,[2]; 1.0 μg/mL,4403
same,R3 luminescence readout,[2]; 1.0 μg/mL,4740
same,Ratio (Avg vs 0 conc),[2]; 1.0 μg/mL,1
same,Avg luminescence readout,[2]; 3.3 μg/mL,4389
same,R1 luminescence readout,[2]; 3.3 μg/mL,4423
same,R3 luminescence readout,[2]; 3.3 μg/mL,4304
same,Ratio (Avg vs 0 conc),[2]; 3.3 μg/mL,1
same,Avg luminescence readout,[2]; 10.0 μg/mL,3959
same,R1 luminescence readout,[2]; 10.0 μg/mL,3865
same,R3 luminescence readout,[2]; 10.0 μg/mL,3897
same,Ratio (Avg vs 0 conc),[2]; 10.0 μg/mL,1
same,Avg luminescence readout,[2]; 30.0 μg/mL,3793
same,R1 luminescence readout,[2]; 30.0 μg/mL,3825
same,R3 luminescence readout,[2]; 30.0 μg/mL,3785
same,Ratio (Avg vs 0 conc),[2]; 30.0 μg/mL,1
same,increase in EFC activity (in words),[2],did not cause an increase in EFC activity
same,Avg luminescence readout,[3]; 1.0 μg/mL,11689
same,R1 luminescence readout,[3]; 1.0 μg/mL,12080
same,R3 luminescence readout,[3]; 1.0 μg/mL,11424
same,Ratio (Avg vs 0 conc),[3]; 1.0 μg/mL,1
same,Avg luminescence readout,[3]; 3.3 μg/mL,11522
same,R1 luminescence readout,[3]; 3.3 μg/mL,12588
same,R3 luminescence readout,[3]; 3.3 μg/mL,11171
same,Ratio (Avg vs 0 conc),[3]; 3.3 μg/mL,1
same,Avg luminescence readout,[3]; 10.0 μg/mL,9211
same,R1 luminescence readout,[3]; 10.0 μg/mL,8813
same,R3 luminescence readout,[3]; 10.0 μg/mL,9419
same,Ratio (Avg vs 0 conc),[3]; 10.0 μg/mL,1
same,Avg luminescence readout,[3]; 30.0 μg/mL,7221
same,R1 luminescence readout,[3]; 30.0 μg/mL,7272
same,R3 luminescence readout,[3]; 30.0 μg/mL,7165
same,Ratio (Avg vs 0 conc),[3]; 30.0 μg/mL,1
